Results on 2 compounds are retold here after patent US4474967A, “8-Deutero and 8-tritio-substituted derivatives of D-4S-6-fluoro-spiro-[chroman-4,4'-imidazolidine]-2',5'-dione” (Pfizer Inc., priority 1983, dated 1984).

In general, % Inhibition refers to the relative decrease from the control value, in per cent. Higher therefore signals a strong effect.

The experiment concerns aldose reductase. The experiment in a line: Inhibition of aldose reductase enzyme activity (S. Hayman et al., as modified by K. Sestanj et al.). In kind it is biochemical. The following applies: partially purified aldose reductase enzyme from calf lens. As for the experimental part: The following asymmetric spiro-hydantoin compounds of Examples 1 and 2, respectively, were tested at a concentration level of 10^-6 M for their ability to reduce or inhibit aldose reductase enzyme activity via the procedure of S. Hayman et al., as described in the Journal of Biological Chemistry, Vol. 240, p. 877(1965) and as modified by K. Sestanj et al. in U.S. Pat. No. 3,821,383. In each case, the substrate employed was partially purified aldose reductase enzyme obtained from calf lens.

Regarding `O=C1NC(=O)[C@@]2(CCOc3c(Cl)cc(F)cc32)N1` [Product of Example 2, 4S-6-fluoro-8-chloro-spiro-[chroman-4,4'-imidazolidine]-2',5'-dione], the “% Inhibition at 10^-6 M” value is recorded as 64%.
Under `O=C1NC(=O)[C@@]2(CCOc3c(F)cc(F)cc32)N1` [Product of Example 1, 4S-6,8-difluoro-spiro-[chroman-4,4'-imidazolidine]-2',5'-dione] stands 74%.
